The assay deals with BaF3 V617F cells (Homo sapiens, UniProt O60674, V617F, cells depend on it). Kind of assay: Proliferation assay, BaF3 V617F cells (Cell Titer-Glo). It is filed as cell-based, mouse. The following applies: proliferation for 72 hours at 37° C., stated to show ability to inhibit JAK2 activity, read-out: IC50 (the source's name). As to the method: BaF3 V617F cells are maintained and plated in RPMI with 10% FBS. Plating density for these cells is 1×10^5 cells/mL.
The cells were resuspended in a corresponding medium at a required cell density (see above). 100μ of cell suspension was added to each well of a flat bottom 96 well white plate. The compound was serially diluted in DMSO from 5 mM in 3-fold dilutions, and then diluted 1:250 in the RPMI 1640 medium containing 5% FBS and pen/strep. 100 μL of resulting 2× compound solution was added per well in duplicate and the cells were allowed to proliferate for 72 hours at 37° C.
Proliferation was measured using Cell Titer-Glo. The substrate was thawed and allowed to come to room temperature. After removal of top 100 μL of medium from each well, 100 μL of the premixed Cell Titer-Glo reagent was added to each well. The plates were mixed on an orbital shaker for three minutes to induce lysis and incubated at ambient temperature for an additional five minutes to allow the signal to equilibrate. The Luminescence was read on the Wallac Plate Reader.
The results of the ability of the compounds of the invention to inhibit JAK2 activity, when tested in the above assay, are shown in the following Table 2 wherein the level of activity (i.e., the IC50) for each compound is indicated in Table 2. The compound numbers in Table 2 refers to the compounds disclosed herein as being prepared by the methods disclosed herein.

BaF3 V617F cells, sequence (O60674 whole entry V617F): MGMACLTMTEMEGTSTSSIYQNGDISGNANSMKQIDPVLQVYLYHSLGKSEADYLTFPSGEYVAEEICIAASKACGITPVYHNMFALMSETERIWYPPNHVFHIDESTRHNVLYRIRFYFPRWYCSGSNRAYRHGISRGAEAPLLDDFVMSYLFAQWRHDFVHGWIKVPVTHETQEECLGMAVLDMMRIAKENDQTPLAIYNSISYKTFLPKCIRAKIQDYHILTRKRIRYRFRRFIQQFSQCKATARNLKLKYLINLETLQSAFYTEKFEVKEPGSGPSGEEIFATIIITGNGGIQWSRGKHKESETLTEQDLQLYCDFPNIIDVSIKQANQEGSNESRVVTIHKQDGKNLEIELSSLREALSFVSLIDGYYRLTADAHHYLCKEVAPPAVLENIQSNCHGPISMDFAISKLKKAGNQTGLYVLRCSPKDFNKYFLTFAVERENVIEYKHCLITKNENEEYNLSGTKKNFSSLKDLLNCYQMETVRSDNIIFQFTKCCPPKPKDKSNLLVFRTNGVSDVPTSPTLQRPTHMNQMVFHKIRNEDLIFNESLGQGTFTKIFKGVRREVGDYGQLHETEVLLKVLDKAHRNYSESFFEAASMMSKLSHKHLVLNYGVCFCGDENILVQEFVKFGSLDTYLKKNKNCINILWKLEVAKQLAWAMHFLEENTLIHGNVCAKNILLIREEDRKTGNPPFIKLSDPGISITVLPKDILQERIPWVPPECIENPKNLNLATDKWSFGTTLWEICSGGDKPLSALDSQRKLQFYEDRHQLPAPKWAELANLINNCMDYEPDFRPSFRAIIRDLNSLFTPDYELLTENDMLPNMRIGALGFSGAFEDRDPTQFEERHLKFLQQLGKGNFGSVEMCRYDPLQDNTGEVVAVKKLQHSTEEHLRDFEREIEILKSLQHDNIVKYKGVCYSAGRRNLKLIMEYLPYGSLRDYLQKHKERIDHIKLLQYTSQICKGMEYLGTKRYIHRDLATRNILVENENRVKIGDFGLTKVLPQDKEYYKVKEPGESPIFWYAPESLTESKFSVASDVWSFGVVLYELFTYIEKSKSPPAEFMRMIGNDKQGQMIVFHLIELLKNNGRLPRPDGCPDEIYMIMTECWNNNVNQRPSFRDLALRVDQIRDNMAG

With `O=C1N[C@@H]2c3cc(Nc4ncc(F)c(Nc5ccc(CCc6ccncc6)cc5)n4)ccc3C[C@@H]2O1` [Compound 29, 5-Fluoro-N2-[(3aR,8aS)-2-oxo-3,3a,8,8a-tetrahydro-2H-indeno[1,2-d]oxazol-5-yl]-N4-[4-[2-(pyridin-4-yl)ethyl]phenyl]-2,4-pyrimidinediamine], the GI50 lay within 250 to 500 nM.

`Cc1cnc(Nc2ccc3c(c2)[C@@H]2NC(=O)O[C@@H]2C3)nc1Nc1ccc2c(c1)NC(=O)C(C)(C)O2` [Compound 13, N4-(2,2-Dimethyl-3-oxo-4H-benz[1,4]oxazin-6-yl)-5-methyl-N2-[(3aS,8aR)-2-oxo-3,3a,8,8a-tetrahydro-2H-indeno[1,2-d]oxazol-5-yl]-2,4-pyrimidinediamine]: the GI50 lay within 1000 to 5000 nM.

With `O=C1N[C@H]2c3cc(Nc4ncc(Cl)c(Nc5ccc(CNS(=O)(=O)C6CC6)cc5)n4)ccc3C[C@H]2O1` [Compound 16, 5-Chloro-N4-[4-[[N-(cyclopropylsulfonyl)amino]methyl]phenyl]-N2-[(3aS,8aR)-2-oxo-3,3a,8,8a-tetrahydro-2H-indeno[1,2-d]oxazol-5-yl]-2,4-pyrimidinediamine], the GI50 was in the range of 1000 to 5000 nM.

Consider `Cc1cc(CNS(=O)(=O)C2CC2)ccc1Nc1nc(Nc2ccc3c(c2)[C@@H]2NC(=O)O[C@@H]2C3)ncc1Cl` [Compound 17, 5-Chloro-N4-[4-[[N-(cyclopropylsulfonyl)amino]methyl]-2-methylphenyl]-N2-[(3aS,8aR)-2-oxo-3,3a,8,8a-tetrahydro-2H-indeno[1,2-d]oxazol-5-yl]-2,4-pyrimidinediamine], for which the GI50 was 1000 to 5000 nM.

Consider `O=C1N[C@H]2c3cc(Nc4ncc(Cl)c(Nc5cccc6c5CCC6)n4)ccc3CC2O1` (stereo partly shown) [Compound 19], for which the GI50 was no less than 5000 nM.

As to `Cc1cnc(Nc2ccc3c(c2)[C@H]2NC(=O)CO[C@H]2C3)nc1Nc1ccc2c(c1)N(C)C(=O)C(C)(C)O2` [Compound 38, 5-Methyl-N2-[(4aR,9aS)-3-oxo-2,3,4,4a,9a-hexahydroindeno[2,1-b][1,4]oxazin-6-yl]-N4-(2,2,4-trimethyl-3-oxo-benz[1,4]oxazin-6-yl)-2,4-pyrimidinediamine], the GI50 lay in the range of 250 to 500 nM.

In the case of `O=C1N[C@H]2c3cc(Nc4ncc(Cl)c(Nc5cccc6c5OCCO6)n4)ccc3C[C@H]2O1` [Compound 23, N4-(1,4-Benzodioxan-5-yl)-5-chloro-N2-[(3aS,8aR)-2-oxo-3,3a,8,8a-tetrahydro-2H-indeno[1,2-d]oxazol-5-yl]-2,4-pyrimidinediamine], the GI50 fell in the range of 1000 to 5000 nM.

`O=C1N[C@H]2c3cc(Nc4ncc(Cl)c(Nc5cccc6c5OC(F)(F)O6)n4)ccc3C[C@H]2O1` [Compound 25, 5-Chloro-N4-(2,2-difluoro-1,3-benzodioxol-4-yl)-N2-[(3aS,8aR)-2-oxo-3,3a,8,8a-tetrahydro-2H-indeno[1,2-d]oxazol-5-yl]-2,4-pyrimidinediamine]: the GI50 is no less than 5000 nM.

On to `O=C1N[C@@H]2c3cc(Nc4ncc(F)c(Nc5ccc(OCc6ccccn6)cc5)n4)ccc3C[C@@H]2O1` [Compound 26, 5-Fluoro-N2-[(3aR,8aS)-2-oxo-3,3a,8,8a-tetrahydro-2H-indeno[1,2-d]oxazol-5-yl]-N4-[4-(pyridin-2-ylmethoxy)phenyl]-2,4-pyrimidinediamine], for which the GI50 fell in the range of 1000 to 5000 nM.

As to `Cc1cnc(Nc2ccc3c(c2)[C@@H]2NC(=O)O[C@@H]2C3)nc1Nc1ccc(OCc2ccccn2)cc1` [Compound 28, 5-Methyl-N2-[(3aS,8aR)-2-oxo-3,3a,8,8a-tetrahydro-2H-indeno[1,2-d]oxazol-5-yl]-N4-[4-(pyridin-2-ylmethoxy)phenyl]-2,4-pyrimidinediamine], the GI50 lay within 250 to 500 nM.

Regarding `Cc1cnc(Nc2ccc3c(c2)[C@H]2NC(=O)O[C@H]2C3)nc1Nc1ccc(OCc2ccccn2)cc1` [Compound 27, 5-Methyl-N2-[(3aR,8aS)-2-oxo-3,3a,8,8a-tetrahydro-2H-indeno[1,2-d]oxazol-5-yl]-N4-[4-(pyridin-2-ylmethoxy)phenyl]-2,4-pyrimidinediamine], the GI50 fell in the range of 250 to 500 nM.

Turning to `Cc1cnc(Nc2ccc3c(c2)[C@H]2NC(=O)OC2C3)nc1Nc1ccc2c(n1)N(C)C(=O)C(C)(C)O2` (stereo partly drawn) [Compound 5, 5-Methyl-N2-[(3aR,8aS)-2-oxo-3,3a,8,8a-tetrahydro-2H-indeno[1,2-d]oxazol-5-yl]-N4-(2,2,4-trimethyl-3-oxo-5-pyrido[1,4]oxazin-6-yl)-2,4-pyrimidinediamine], the GI50 is less than 250 nM.

Consider `Cc1cnc(Nc2ccc3c(c2)[C@H]2NC(=O)O[C@H]2C3)nc1Nc1cccc2c1CCCC2` [Compound 37, 5-Methyl-N2-[(3aR,8aS)-2-oxo-3,3a,8,8a-tetrahydro-2H-indeno[1,2-d]oxazol-5-yl]-N4-(5,6,7,8-tetrahydronaphthalen-1-yl)-2,4-pyrimidinediamine], for which the GI50 was less than 250 nM.

With `Cc1cnc(Nc2ccc3c(c2)[C@H]2NC(=O)O[C@H]2C3)nc1Nc1ccc2c(c1)N(C)C(=O)CS2` [Compound 4, 5-Methyl-N4-(4-methyl-3-oxo-2H-benz[1,4]thiazin-6-yl)-N2-[(3aR,8aS)-2-oxo-3,3a,8,8a-tetrahydro-2H-indeno[1,2-d]oxazol-5-yl]-2,4-pyrimidinediamine], the GI50 was in the range of 500 to 1000 nM.

Consider `O=C1N[C@H]2c3cc(Nc4ncc(F)c(Nc5ccc(CCc6ccncc6)cc5)n4)ccc3C[C@H]2O1` [Compound 33, 5-Fluoro-N2-[(3aS,8aR)-2-oxo-3,3a,8,8a-tetrahydro-2H-indeno[1,2-d]oxazol-5-yl]-N4-[4-[2-(pyridin-4-yl)ethyl]phenyl]-2,4-pyrimidinediamine], for which the GI50 lay within 250 to 500 nM.

Turning to `Cc1cnc(Nc2ccc3c(c2)[C@@H]2NC(=O)O[C@@H]2C3)nc1Nc1cccc2c1CCCC2` [Compound 22, 5-Methyl-N2-[(3aS,8aR)-2-oxo-3,3a,8,8a-tetrahydro-2H-indeno[1,2-d]oxazol-5-yl]-N4-(5,6,7,8-tetrahydronaphthalen-1-yl)-2,4-pyrimidinediamine], the GI50 fell in the range of 250 to 500 nM.

With `Cc1cnc(Nc2ccc3c(c2)[C@@H]2NC(=O)O[C@@H]2C3)nc1Nc1cccc2c1OCCO2` [Compound 24, N4-(1,4-Benzodioxan-5-yl)-5-methyl-N2-[(3aS,8aR)-2-oxo-3,3a,8,8a-tetrahydro-2H-indeno[1,2-d]oxazol-5-yl]-2,4-pyrimidinediamine], the GI50 was less than 250 nM.

For `Cc1cnc(Nc2ccc3c(c2)[C@H]2NC(=O)O[C@H]2C3)nc1Nc1cccc2c1CCC2` [Compound 35, N4-(Indan-4-yl]-5-methyl-N2-[(3aR,8aS)-2-oxo-3,3a,8,8a-tetrahydro-2H-indeno[1,2-d]oxazol-5-yl]-2,4-pyrimidinediamine], the GI50 is less than 250 nM.

For the compound `O=C1N[C@@H]2c3cc(Nc4ncc(Cl)c(Nc5cccc6c5CCC6)n4)ccc3CC2O1` (stereo partly drawn) [Compound 34, 5-Chloro-N4-(indan-4-yl]-5-methyl-N2-[(3aR,8aS)-2-oxo-3,3a,8,8a-tetrahydro-2H-indeno[1,2-d]oxazol-5-yl]-2,4-pyrimidinediamine], the GI50 is no less than 5000 nM.

In the case of `CCN1C(=O)C(C)(C)Oc2ccc(Nc3nc(Nc4ccc5c(c4)[C@@H]4NC(=O)O[C@@H]4C5)ncc3C)cc21` [Compound 11, N4-(2,2-Dimethyl-4-ethyl-3-oxo-benz[1,4]oxazin-6-yl)-5-methyl-N2-[(3aS,8aR)-2-oxo-3,3a,8,8a-tetrahydro-2H-indeno[1,2-d]oxazol-5-yl]-2,4-pyrimidinediamine], the GI50 lay within 250 to 500 nM.

As to `Cc1cc(CNS(=O)(=O)C2CC2)ccc1Nc1nc(Nc2ccc3c(c2)[C@@H]2NC(=O)OC2C3)ncc1C` (stereo partly shown) [Compound 18], the GI50 lay within 1000 to 5000 nM.

Take `O=C1CO[C@H]2Cc3ccc(Nc4ncc(Cl)c(Nc5ccc(CNS(=O)(=O)C6CC6)cc5)n4)cc3[C@H]2N1` [Compound 40, 5-Chloro-N4-[4-[[N-(cyclopropylsulfonyl)amino]methyl]phenyl]-N2-[(4aR,9aS)-3-oxo-2,3,4,4a,9a-hexahydroindeno[2,1-b][1,4]oxazin-6-yl]-2,4-pyrimidinediamine]: the GI50 is less than 250 nM.

For `O=C1N[C@H]2c3cc(Nc4ncc(F)c(Nc5ccc(OCc6ccccn6)cc5)n4)ccc3C[C@H]2O1` [Compound 30, 5-Fluoro-N2-[(3aS,8aR)-2-oxo-3,3a,8,8a-tetrahydro-2H-indeno[1,2-d]oxazol-5-yl]-N4-[4-(pyridin-2-ylmethoxy)phenyl]-2,4-pyrimidinediamine], the GI50 fell in the range of 1000 to 5000 nM.

As to `CN1C(=O)C(C)(C)Oc2ccc(Nc3nc(Nc4ccc5c(c4)[C@@H]4NC(=O)O[C@@H]4C5)ncc3Cl)cc21` [Compound 10, 5-Chloro-N2-[(3aS,8aR)-2-oxo-3,3a,8,8a-tetrahydro-2H-indeno[1,2-d]oxazol-5-yl]-N4-(2,2,4-trimethyl-3-oxo-benz[1,4]oxazin-6-yl)-2,4-pyrimidinediamine], the GI50 is less than 250 nM.

For `Cc1cnc(Nc2ccc3c(c2)[C@H]2NC(=O)CO[C@H]2C3)nc1Nc1ccc(CNS(=O)(=O)C2CC2)cc1` [Compound 39, N4-[4-[[N-(Cyclopropylsulfonyl)amino]methyl]phenyl]-5-methyl-N2-[(4aR,9aS)-3-oxo-2,3,4,4a,9a-hexahydroindeno[2,1-b][1,4]oxazin-6-yl]-2,4-pyrimidinediamine], the GI50 is 250 to 500 nM.

The values are drawn from patent US8846908B2, “Tricyclic carbamate JAK inhibitors” (Rigel Pharmaceuticals, Inc., priority 2008, dated 2014).
